Assay results from publication PMC12234328, “A naphthalimide derivative exerts potent antiplatelet and antithrombotic activities without a bleeding tendency” (Frontiers in Pharmacology, 2025).

Tested on: GPVI signaling (Lyn, Fyn, PLCγ2, PKC substrate p47, Akt, MAPKs)
Experiment: Western blotting of GPVI signaling in collagen-stimulated platelets
Format: cell-based, human
Details: collagen 1 μg/mL
Protocol: Western blotting was performed as described previously ([Lien et al., 2017]). Human platelet suspensions (3.6 × 10^8 cells/mL) were pretreated with compound 6 (2.5 and 5 μM) or 0.1% DMSO for 3 min and then treated with collagen for 6 min. After centrifugation, the platelet pellets were immediately resuspended in lysis buffer (200 μL) for 1 h. The supernatants were collected after centrifugation at 5,000 g for 5 min, and the protein extracts (80 μg) were subjected to 8%–12% sodium dodecylsulfate–polyacrylamide gel electrophoresis. The separated proteins were then electrotransferred onto a polyvinylidene fluoride membrane through a semidry transfer (Thermo Fisher, Waltham, MA, United States). The membrane was blocked with TBST (10 mM Tris-base, 100 mM NaCl, and 0.01% Tween-20) containing 5% B.S.A. for 1 h. After being washed three times, the membrane was incubated with various specific primary antibodies (1:1,000). Subsequently, the membrane was incubated with HRP-conjugated antibodies (1:5,000) for 1 h. Immunoreactive bands were developed using an electrochemiluminescence kit and analyzed using Celvin S (Biostep, Burkhardtsdorf, Germany).
FIGURE 5 Effects of compound 6 on the phosphorylation of Fyn, Lyn, PLCγ2, and PKC substrates (p47) induced by collagen in human platelets. (A–D) Washed platelets (3.6 × 10^8 cells/mL) were treated with compound 6 (2.5 and 5 μM) or DMSO before adding collagen (1 μg/mL). Proteins of these samples were separated by Western blotting. These targets (Fyn, Lyn, PLCγ2, and p47) were detected using specific antibodies. Data (A–D) are presented as means ± SEM (n = 5). **p < 0.01 and ***p < 0.001 compared with the resting group. #p < 0.05, ##p < 0.01, and ###p < 0.001 compared with the DMSO (solvent control) group.
FIGURE 6 Effects of compound 6 on the phosphorylation of Akt, and MAPKs induced by collagen in human platelets. Washed platelets (3.6 × 10^8 cells/mL) were treated with compound 6 (2.5 and 5 μM) or DMSO before adding collagen (1 μg/mL). […] Akt (A), p38 MAPK (B), ERK (C), and JNK (D) were detected using specific antibodies. […]

CCCCN1C(=O)c2cccc3c(NCCNC(=O)C45CC6CC(CC(C6)C4)C5)ccc(c23)C1=O [compound 6]
Collagen-induced phosphorylation of Akt and MAPKs (ERK, p38 MAPK, JNK) (5 μM, n = 4): could be diminished | Collagen-induced Lyn and Fyn phosphorylation (2.5 and 5 μM, n = 5): could be reversed | Collagen-induced phosphorylation of PLCγ2 and the substrate of PKC (p47 proteins) (2.5 and 5 μM, n = 5): significantly reduced
